Reference: PMC10380385, “Synthesis, In Vitro, and In Vivo Investigations of Pterostilbene-Tethered Analogues as Anti-Breast Cancer Candidates” (International Journal of Molecular Sciences, 2023)

Key:
MCF-7 cells = assay: DNA content / cell cycle of PI-stained cells by flow cytometry, MCF-7; assay type: cell-based, human; conditions: MCF-7, 10.0 μM
From the text: It is commonly acknowledged that […] DNA fragmentation is a crucial hallmark of cell apoptosis. Next, we assessed the influence of 2L on the DNA content of PI-stained BC cells using flow cytometry. […] In turn, treatment with 2L led to an apparent enhancement of the number of MCF-7 cells, from 51.7% to 63.0%. […] An augmentation of DNA distribution in the SubG1 peak was representative of the occurrence of apoptosis in 2L-exposed groups, which further confirmed that 2L could induce the apoptosis of BC cells. In addition, the quantitative analysis of DNA distribution for the subG1, G0/G1, S, and G2/M phases appeared to show similar alterations (Figure 4B,D).

MDA-MB-231 cells [1] = assay: Mitochondrial membrane potential JC-1 assay, MDA-MB-231; assay type: cell-based, human; conditions: MDA-MB-231, 24 h, flow cytometry
Description: The MMP was assayed using a JC-1 assay kit (Beyotime, Shanghai, China) according to the manufacturer’s instructions. In brief, MDA-MB-231 and MCF-7 cells were plated in 24-well plates at a density of 6 × 10^4 cells per well. After intervention with 2L (0, 10 μM) for 24 h, the cells were washed once with PBS. Cell culture solution (0.5 mL) and JC-1 working solution (0.5 mL) were successively added, mixed well, and incubated at 37 °C for 20 min in the dark. After washing twice with 1 × JC-1 staining buffer, the cells were resuspended in fresh culture medium. The graphical results were observed under a fluorescence microscope.
MDA-MB-231 and MCF-7 cells were incubated in 6-well plates at a density of 3 × 10^5 cells per dish and exposed to 2L for 24 h. Cell culture media (1 mL) and JC-1 staining working solution (1 mL) were added, thoroughly mixed, and incubated at 37 °C for 20 min. After washing twice with 1 × JC-1 staining buffer, the cells were collected and resuspended in 500 μL JC-1 staining buffer and then instantly analyzed using a flow cytometry.

MDA-MB-231 xenograft = assay: MDA-MB-231-derived xenograft mouse model; assay type: in vivo; conditions: for tumor growth inhibition (TGI): intraperitoneal, every other day, 10 treatments, by tumor weight
Description: BALB/c nude mice (female, 6–7 weeks) were purchased from Changsheng Biotechnology Co., Ltd. (Liaoning, China). MDA-MB-231 cells (5 × 10^6 cells/mouse) were injected subcutaneously into the right back of the nude mice. When the tumor volume reached approximately 55 mm^3, the female mice were randomly divided into two treatment groups (25, 50 mg/kg) and a vehicle group (equal volume of normal saline) with five mice in each group. Throughout the experiment, 2L and saline were intraperitoneally injected every other day for 10 treatments. At the same time, the changes in tumor volume and body weight of the nude mice were tracked and recorded. The tumor volumes were assessed using the formula: V (mm^3) = (length × width^2)/2. At the end of the experimental period, tumor tissues were harvested, weighed, and collected. The TGI rate was calculated by the average tumor weight of the 2L-treated and control groups.

MDA-MB-231 cells [2] = assay: Intracellular ROS, DCFH-DA, MDA-MB-231; assay type: cell-based, human; conditions: MDA-MB-231, 2L 24 h, vs control
Description: The Reactive Oxygen Species Assay Kit was used to measure intracellular ROS levels. MDA-MB-231 and MCF-7 cells (6 × 10^4 cells/well) were seeded onto 24-well plates and treated with 2L (0, 10 μM) for 24 h. Subsequently, the cells were washed with PBS and stained with dichlorodihydrofluorescein diacetate (DCFH-DA, 10 μM) at 37 °C for 20 min in the dark. Following three washes with serum-free DMEM, the fluorescence alteration was photographed using a fluorescence microscope.
MDA-MB-231 and MCF-7 cells were plated in 6-well plates with a density of 3 × 10^5 cells/well. After exposure to 2L for 24 h, the cells were incubated with 10 μM DCFH-DA at 37 °C for 20 min in the dark. Later, the cells were slightly washed three times with serum-free DMEM and centrifuged (1000 rpm, 5 min). The collected cells were resuspended in PBS and loaded into a flow cytometer.

[3] = test system: apoptosis-related proteins in MDA-MB-231 cells; assay: Western blot of apoptosis-related proteins, MDA-MB-231; assay type: cell-based, human; conditions: MDA-MB-231, 2L 1.1, 3.3, 10 μM, 24 h
Description: (§1) MDA-MB-231 and MCF-7 cells were cultured in a 6-well plate with the density of 3 × 10^5 cells/well and treated with different concentrations of 2L (0, 1.1, 3.3, 10 μM) for 24 h. The cells were lysed in radioimmunoprecipitation assay (RIPA) buffer (Beyotime, Shanghai, China) containing 1% protease inhibitor cocktail and 1 mM phenylmethylsulfonyl fluoride (PMSF, Sigma-Aldrich, St. Louis, MO, USA). After centrifugation, the supernatant was collected and quantified by BCA assay (Beyotime). Lysates were mixed with the loading buffer (5 ×) and denatured by boiling for 10 min. Then, the equivalent samples were separated via 10–15% sodium dodecyl–sulfate polyacrylamide gel electrophoresis (SDS-PAGE), transferred to 0.45 µm immunoblot poly(vinylidene fluoride) (PVDF) membranes (Merck Millipore, Darmstadt, Germany) at 4 °C, and blocked in 5% skimmed milk in TBST for 1 h at room temperature. The membranes were incubated overnight at 4 °C with specific primary antibodies. After washing three times with TBST, the PVDF membranes were incubated with horseradish peroxidase (HRP)-conjugated secondary antibodies at rt for 1 h. Lastly, the resulting bands were visualized by a Bio-Rad ChemiDoc imaging system ([…]) using enhanced chemiluminescence reagents (Millipore, Billerica, MA, USA). The details of the corresponding primary antibodies were as follows: Bax (2772; Cell Signaling Technology), Bcl-2 (3498; Cell Signaling Technology), cleaved caspase-3 (9661; Cell Signaling Technology), cleaved caspase-9 (9505; Cell Signaling Technology), and PARP (9542; Cell Signaling Technology). The HRP-secondary antibodies were also obtained from Cell Signaling Technology (Boston, MA, USA).

[4] = test system: apoptosis-related proteins in MCF-7 cells; assay: Western blot of apoptosis-related proteins, MCF-7; assay type: cell-based, human; conditions: MCF-7, 2L 1.1, 3.3, 10 μM, 24 h
Description: as §1

COc1cc(/C=C/c2ccc(OCCCN3CCCCC3)cc2)cc(OC)c1 [Compound 2L, (E)-1-(3-(4-(3,5-dimethoxystyryl)phenoxy)propyl)piperidine]
percentage of cells in subG1 (MCF-7 cells): 7.83% | proportion of cells in G0/G1 phase (MCF-7 cells): 63.0% | ΔΨm level after 2L (MDA-MB-231 cells [1]): 83.9% | tumor growth inhibition (TGI) (MDA-MB-231 xenograft; 25 mg/kg): 42.0% | tumor growth inhibition (TGI) (MDA-MB-231 xenograft; 50 mg/kg): 69.9% | toxicity in nude mice (body weight fluctuation) (MDA-MB-231 xenograft; 25 and 50 mg/kg, whole study): no obvious toxicity | level of Bcl-2 protein in tumor tissues (MDA-MB-231 xenograft; Western blot, vs control group): decreased | protein expression of Bax in tumor tissues (MDA-MB-231 xenograft; Western blot, vs control group): noticeably increased | protein expression of cleaved PARP in tumor tissues (MDA-MB-231 xenograft; Western blot, vs control group): noticeably increased | mean ROS-associated fluorescence intensity (MDA-MB-231 cells [2]): greatly increased | expression of Bcl-2 [3]: markedly downregulated | level of Bax [3]: upregulated | protein expression of cleaved caspase-3 [3]: increase | protein expression of cleaved caspase-9 [3]: increase | protein level of cleaved PARP [3]: effectively elevate | expression of Bcl-2 [4]: markedly downregulated | level of Bax [4]: upregulated | protein expression of cleaved caspase-3 [4]: increase | protein expression of cleaved caspase-9 [4]: increase | protein level of cleaved PARP [4]: effectively elevate
